Measured values from US20140073694A1, “CYSTAMINE ANALOGUES FOR THE TREATMENT OF PARKINSON'S DISEASE” (UNIVERSITE LAVAL, priority 2011, published 2014).
“Also recorded” adds a separate entry of the source.

Columns and labels:
[1] = set-up: species or system C57BL/6 mice; details: in vivo, ip, 200 mg/kg
Experimental: Young adult (9-week old, 25 g) male C57BL/6 mice were purchased from Charles River Laboratories (Montréal, QC, Canada). Animals were housed four per cage under standard conditions with free access to food and water, randomized and handled under the same conditions by one investigator. All experiments were performed in accordance with the Canadian Council on Animal Care and were approved by the Institutional Committee of the Centre Hospitalier de l'Université Laval (CHUL). Throughout the experiment, the health status of all mice included in the study was closely monitored. To clearly identify the active intermediate following cystamine injection, as well as to understand its systemic and cerebral metabolism, a single intraperitoneal (i.p.) injection of cystamine was administered to normal adult C57BL/6 male mice using three different doses: 10, 50, and 200 mg/kg, as determined in prior publications (Tremblay et al. 2006; Gibrat et al. 2010). These doses were ultimately compared with saline injections. Cystamine was dissolved in sterile saline (0.9%) and injected 1, 3, 12, 24 and 48 h before killing. Animals were sacrificed under deep anesthesia with ketamine/xylazine and perfused via intracardiac infusion with 0.1 M phosphate-buffered saline. […]

[2] = system: MPTP-treated mice; test: Subacute MPTP mouse model of Parkinson's disease: nigral DAergic markers (TH, Nurr1, DAT); type: in vivo, C57BL/6 mice
Experimental: Young adult (9-week old, 25 grams) male C57BL/6 mice were purchased from Charles River Laboratories (Montréal, QC, Canada). Animals were housed 4 per cage under standard conditions with free access to food and water, randomized and handled under the same conditions by one investigator. All experiments were performed in accordance with the Canadian Council on Animal Care and were approved by the Institutional Committee of the Centre Hospitalier de l'Université Laval (CHUL, Québec, Canada). Throughout the experiment, the health status of all mice included in the study was closely monitored for weight loss or other signs of health-related issues. All efforts were made to minimize animal pain and discomfort.
Mice received 7 i.p. injections, twice on the first 2 days of the experimental protocol at an interval of 12 hrs and once a day on 3 subsequent days, of either saline 0.9% or MPTP-HCl (20 mg/kg free base; Sigma, St. Louis, Mo.) dissolved in saline 0.9% prepared fresh (Tremblay et al., 2006; Gibrat et al., 2007; Gibrat et al., 2010).
Beneficial effects of cystamine in parkinsonian mice (cystamine dihydrochloride, Sigma, St. Louis, Mo.) were evaluated with a dose of 10 mg/kg dissolved in sterile saline 0.9% and prepared fresh for daily i.p. injection 1 hr before MPTP administration. The choice of dose and regime of administration was based on our previous findings (Tremblay et al., 2006; Gibrat et al., 2010). The first injection of cystamine was administered either 1) 2 days before the start of MPTP injections (pre-treatment) or 2) 24 hours after the last MPTP dose (post-treatment), and the treatment continued daily for 14 days post injury.
The effects of cystamine on the MPTP toxicity were studied in the following experimental groups: Group I, Saline+Saline; Group II, Saline+Cystamine post-treatment; Group III; Saline+Cystamine pre-treatment; Group IV, MPTP+Saline; Group V, MPTP+Cystamine post-treatment, Group VI, MPTP+Cystamine pre-treatment. In total, 96 mice (n=16 per group) were utilized, monitored daily for weight variation, and ultimately sacrificed by perfusion 24 hrs after the last cystamine (or vehicle) injection.
Experiment 1. All mice were subjected to intracardiac perfusion with RNAse free 0.1 M phosphate-buffered saline (PBS). After intracardiac perfusion, brains were collected and the two hemispheres were separated. The left hemisphere was post-fixed in 4% paraformaldehyde (PFA) for 48 hrs and transferred to 20% sucrose in 0.1 M PBS for cryoprotection. Coronal brain sections of 25 μm thickness were cut onto a freezing microtome (Leica Microsystems, Montreal, QC) and serially collected in anti-freeze solution (monophosphate sodium monobasic 0.2 M, monophosphate sodium dibasic 0.2 M, ethylene glycol 30%, glycerol 20%) and kept at −20° C. until use. Sections from the left hemisphere were utilized for additional immunohistochemistry and in situ hybridization protocols. The right hemispheres were snap-frozen in 2-methyl-butane and then stored at −80° C. until cryostat dissection for HPLC and western-blot (WB) analyses.
For assessment of DAergic neuronal-loss, immunohistochemistry against the enzyme TH was performed as previously described (Tremblay et al., 2006; Gibrat et al., 2009). Briefly, free-floating sections, after several washes and blocking preincubation, were incubated overnight at 4° C. with a rabbit anti-TH (Pel-Freez, Rogers, Ark.; 1:5000). Sections were then incubated for 1 hr at room temperature (RT) in a solution containing biotinylated goat anti-rabbit IgG (Vector Laboratories, Burlington, ON; 1:1500) and subsequently placed in a solution containing avidin-biotin peroxidase complex (ABC Elite kit; Vector Laboratories, Burlington, ON) for 1 hr at RT. Finally, the reaction was developed in 3,3′ diaminobenzidine tetrahydrochloride (DAB) solution (Sigma, St. Louis, Mo.) and 0.1% of 30% hydrogen peroxide (Sigma, St. Louis, Mo.) at RT. […]

[3] = post-treatment: 10 mg/kg i.p. daily started 24 h after last MPTP dose, 14 days
[4] = pre-treatment: 10 mg/kg i.p. daily started 2 days before MPTP

NCCSSCCN [cystamine, Cystamine]
duration of hypothermia and somnolence signs ([1]; male, C57BL/6, mouse): approximately 2 h
clinical signs ([1]; mouse): signs of hypothermia (shivering) and somnolence (closing of eyelids)
DAT mRNA / DAT mRNA expressing cells in the SNpc [2, 3]: significant recovery; also recorded: higher level; also recorded: comparable number of DAT-positive cells as saline treated animals
Nurr1 mRNA levels in the SNpc [2, 3]: significant recovery; also recorded: normal levels of Nurr1 mRNA; also recorded: higher level of Nurr1
TH-positive and Nissl-positive neurons in the SNpc, stereological count [2, 3]: significant recovery of the number of nigral DAergic neurons; also recorded: significantly greater number of TH-positive and Nissl-positive neurons
Nurr1 mRNA levels in the SNpc [2, 4]: normalization of Nurr1 mRNA levels
SNpc neurons expressing DAT [2, 4]: normalization; also recorded: comparable number of DAT-positive cells as saline treated animals
TH-immunoreactive (TH-positive) neurons in the SNpc, stereological count ([2]; pre-treatment: 10 mg/kg i.p. daily started 2 days before MPTP, continued 14 days post injury): increase density of TH-immunoreactive cells in the SNpc
